As usually defined, the melting point is the temperature of the solid-liquid transition.

One data set has as its system HDAC. Description: HDAC fluorimetric assay kit (AK-500, Biomol), HeLa nuclear extract. Format: biochemical. As to the method: HDAC inhibitors were screened using an HDAC fluorimetric assay kit (AK-500, Biomol, Plymouth Meeting, Pa.). […] Each assay was setup as follows: Defrosted all kit components and kept on ice until use. Diluted HeLa nuclear extract 1:29 in Assay Buffer (50 mM Tris/Cl, pH 8.0, 137 mM NaCl, 2.7 mM KCl, 1 mM MgCl2). Prepared dilutions of Trichostatin A (TSA, positive control) and tested compounds in assay buffer (5× of final concentration). Diluted Fluor de LysTM Substrate in assay buffer to 100 uM (50 fold=2× final). Diluted Fluor de LysTM developer concentrate 20-fold (e.g. 50 μl plus 950 μl Assay Buffer) in cold assay buffer. Second, diluted the 0.2 mM Trichostatin A 100-fold in the 1× Developer (e.g. 10 μl in 1 ml; final Trichostatin A concentration in the 1× Developer=2 μM; final concentration after addition to HDAC/Substrate reaction=1 μM). Added Assay buffer, diluted trichostatin A or test inhibitor to appropriate wells of the microtiter plate. Added diluted HeLa extract or other HDAC sample to all wells except for negative controls. Allowed diluted Fluor de LysTM Substrate and the samples in the microtiter plate to equilibrate to assay temperature (e.g. 25 or 37° C. Initiated HDAC reactions by adding diluted substrate (25 μl) to each well and mixing thoroughly. Allowed HDAC reactions to proceed for 1 hour and then stopped them by addition of Fluor de LysTM Developer (50 μl). Incubated plate at room temperature (25° C.) for 10-15 min. Read samples in a microtiter-plate reading fluorimeter capable of excitation at a wavelength in the range 350-380 nm and detection of emitted light in the range 440-460 nm.

For the next data set, the target named is T1, CDK2/cyclinE (Homo sapiens, UniProt P24941).
T1 construct: C-terminal 6His-tagged, recombinant full-length CDK2 (MW=34 kDa); 6His (C); made in house; host or cells: Sf21 cells (baculovirus)
Description: CDK activity assay with p33 ATP, CDK2/cyclinE. Format: biochemical. To be noted: 1 μM ATP. Here is the method: CDK2/cyclinE (Accession Number for CDK2; EMBL M68520, for cyclinE1; GenBank NM_001238):
C-terminal 6His-tagged, recombinant full-length CDK2 (MW=34 kDa) in complex with N-terminal GST-tagged, recombinant full-length cyclinE1 (MW=74 kDa) were expressed with baculovirus system in Sf21 cells. Recombinant proteins were purified using Ni2+/NTA agarose and the purity of recombinant protein complex was measured to be around 76% by SDS-PAGE and Coomassie blue staining. Specific Activity of recombinant CDK2/cyclinE was 1336 U/mg, where one unit of CDK2/cylinE1 activity is defined as 1 nmol phosphate incorporated into 0.1 mg/ml histone H1 per minute at 30° C. with a final ATP concentration of 100 μM. Enzyme was stored with concentration of 0.1 mg/ml in 50 mM Tris/HCl pH 7.5, 150 mM NaCl, 0.03% Brij-35, 0.1 mM EGTA, 0.2 mM PMSF, 1 mM benzamidine, 0.1% 2-mercaptoethanol, 270 mM sucrose.

A further data set has as its target T2, CDK6/cyclinD3 (Homo sapiens, UniProt Q00534).
T2 construct: N-terminal, 6His-tagged full-length human cdk6 (MW=38 kDa); 6His (N); made in house; host or cells: Sf21 cells
Description: CDK activity assay with p33 ATP, CDK6/cyclinD3. It is filed as biochemical. To be noted: 1 μM ATP; read-out: CDK6/cyclinD IC50. As to the method:
CDK6/cyclinD3 (Accession Number for CDK6; GenBank X66365, for Cyclin D3; EMBL M90814):
N-terminal, 6His-tagged full-length human cdk6 (MW=38 kDa) complexed with N-terminal GST-tagged full-length human cyclin D3 (MW=59 kDa) were expressed in Sf21 cells. Recombinant protein complex was purified using glutathione-agarose and activated with CAK, and repurified with Ni2+/NTA-agarose column. Purity was measured to be at least 68%. Specific Activity was measured to be 39 U/mg, where one unit of cdk6/cyclinD3 activity is defined as 1 nmol phosphate incorporated into 0.1 mg/ml histone H1 per minute at 30° C. with a final ATP concentration of 100 μM. Enzyme was stored at concentration of 0.1 mg/ml in 50 mM Tris-HCl, pH 7.5, 270 mM sucrose, 150 mM NaCl, 1 mM benzamidine, 0.2 mM PMSF, 0.1% 2-mercaptoethanol, 0.1 mM EGTA, 0.03% Brij 35.

T2 sequence (Q00534 whole entry): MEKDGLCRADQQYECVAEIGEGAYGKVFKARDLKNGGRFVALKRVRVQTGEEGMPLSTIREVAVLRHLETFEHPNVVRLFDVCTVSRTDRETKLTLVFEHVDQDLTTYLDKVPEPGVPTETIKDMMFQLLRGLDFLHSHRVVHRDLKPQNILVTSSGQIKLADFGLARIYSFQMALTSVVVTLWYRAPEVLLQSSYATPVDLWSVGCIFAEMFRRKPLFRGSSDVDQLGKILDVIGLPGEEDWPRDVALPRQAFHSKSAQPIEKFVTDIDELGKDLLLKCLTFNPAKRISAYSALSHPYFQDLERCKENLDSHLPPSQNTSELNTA
T2 sequence (P30281 whole entry partner): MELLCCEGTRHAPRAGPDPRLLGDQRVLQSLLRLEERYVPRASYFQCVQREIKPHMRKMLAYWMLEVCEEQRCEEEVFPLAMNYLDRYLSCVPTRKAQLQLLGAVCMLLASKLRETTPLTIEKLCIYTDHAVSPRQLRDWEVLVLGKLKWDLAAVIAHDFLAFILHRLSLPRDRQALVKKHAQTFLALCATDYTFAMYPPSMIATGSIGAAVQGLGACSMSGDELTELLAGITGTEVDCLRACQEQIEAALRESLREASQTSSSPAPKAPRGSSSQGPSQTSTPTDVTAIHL

On to `CC(C)(C)c1cnc(CSc2cnc(NC(=O)CCCC(=O)NO)s2)o1` [Compound 5, N^1-(5-((5-tert-butyloxazol-2-yl)methylthio)thiazol-2-yl)-N^5-hydroxyglutaramide], for which the IC50 with HDAC was 0.1 to 1 µM; against CDK2/cyclinE it was under 0.1 µM; at CDK6/cyclinD3 it was 0.1 to 1 µM.

Consider `CC(C)(C)c1cnc(CSc2cnc(NC(=O)CCCCC(=O)NO)s2)o1` [Compound 6, N^1-(5-((5-tert-butyloxazol-2-yl)methylthio)-thiazol-2-yl)-N^6-hydroxyadipamide], for which the IC50 in the data set with HDAC was 0.1 to 1 µM; against CDK2/cyclinE it was under 0.1 µM; on CDK6/cyclinD3, 0.1 to 1 µM.

As for `CC(C)(C)c1cnc(CSc2cnc(NC(=O)CCCNCCC(=O)NO)s2)o1` [Compound 13, N-(5-((5-tert-butyloxazol-2-yl)methylthio)thiazol-2-yl)-4-(3-(hydroxyamino)-3-oxopropylamino)butanamide], the IC50 in the data set on HDAC was over 10 µM; on CDK2/cyclinE it was under 0.1 µM; on CDK6/cyclinD3 it was 0.1 to 1 µM.

In turn, `CC(C)(C)c1cnc(CSc2cnc(NC(=O)Cc3ccc(OCCC(=O)NO)cc3)s2)o1` [Compound 23, 3-(4-(2-(5-((5-tert-butyloxazol-2-yl)methylthio)-thiazol-2-ylamino)-2-oxoethyl)phenoxy)-N-hydroxypropanamide] showed a melting point of 93 to 95 °C. Moreover, in the data set on HDAC, the IC50 is under 0.1 µM. This compound returned an IC50 on CDK2/cyclinE of under 0.1 µM.

Source of the values: patent publication US8563741B2, “CDK inhibitors containing a zinc binding moiety” (Curis, Inc., priority 2007, dated 2013).
